Assay results as given in PubChem BioAssay AID330 (DTP/NCI, 2004).
“And” between values parts separate entries of the source, which are not always exact repeats. Equal entries are not always repeated. Toxic doses and inconclusive results are not listed. The calls were made as follows: active = survival T/C of 150% or more; inactive = T/C below 125% in these data. Peptide text beside a SMILES is read from it.

System: P388 leukemia ip, CD2F1 mice, survival T/C
Experiment: NCI In Vivo Anticancer Drug Screen. Data for tumor model P388 Leukemia (intraperitoneal) in CD2F1 (CDF1) mice
Settings: endpoint: median survival time, higher = longer survival
Procedure, shortened: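 Mice carrying the transplanted tumor received test compound or vehicle. Survival was recorded in each group, and the value is the treated-group measurement divided by that of the vehicle-treated control group.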

[1] = dose: 50.0 mg/kg/injection, schedule: Q01DX009 (ip), vehicle: saline with Tween-80
[2] = dose: 100.0 mg/kg/injection, schedule: Q01DX009 (ip), vehicle: saline with Tween-80
[3] = dose: 200.0 mg/kg/injection, schedule: Q01DX009 (ip), vehicle: saline with Tween-80
[4] = dose: 50.0 mg/kg/injection, schedule: Q04DX002 (ip), vehicle: saline with Tween-80
[5] = dose: 100.0 mg/kg/injection, schedule: Q04DX002 (ip), vehicle: saline with Tween-80
[6] = dose: 50.0 mg/kg/injection, schedule: Q01DX009 (ip), vehicle: Klucel (hydroxypropylcellulose) (HPC)
[7] = dose: 100.0 mg/kg/injection, schedule: Q01DX009 (ip), vehicle: Klucel (hydroxypropylcellulose) (HPC)
[8] = dose: 200.0 mg/kg/injection, schedule: Q01DX009 (ip), vehicle: Klucel (hydroxypropylcellulose) (HPC)
[9] = dose: 25.0 mg/kg/injection, schedule: Q01DX009 (ip), vehicle: saline
[10] = dose: 100.0 mg/kg/injection, schedule: Q04DX003 (ip), vehicle: saline
[11] = dose: 25.0 mg/kg/injection, schedule: Q01DX009 (ip), vehicle: saline with Tween-80
[12] = dose: 50.0 mg/kg/injection, schedule: Q01DX005 (ip), vehicle: Klucel (hydroxypropylcellulose) (HPC)
[13] = dose: 100.0 mg/kg/injection, schedule: Q01DX005 (ip), vehicle: Klucel (hydroxypropylcellulose) (HPC)
[14] = dose: 200.0 mg/kg/injection, schedule: Q01DX005 (ip), vehicle: Klucel (hydroxypropylcellulose) (HPC)
[15] = dose: 12.5 mg/kg/injection, schedule: Q01DX009 (ip), vehicle: saline
[16] = dose: 50.0 mg/kg/injection, schedule: Q01DX009 (ip), vehicle: saline
[17] = dose: 60.0 mg/kg/injection, schedule: Q01DX005 (ip), vehicle: saline with Tween-80
[18] = dose: 120.0 mg/kg/injection, schedule: Q01DX005 (ip), vehicle: saline with Tween-80
[19] = dose: 240.0 mg/kg/injection, schedule: Q01DX005 (ip), vehicle: saline with Tween-80
[20] = dose: 200.0 mg/kg/injection, schedule: Q04DX002 (ip), vehicle: saline with Tween-80
[21] = dose: 50.0 mg/kg/injection, schedule: Q01DX005 (ip), vehicle: saline with Tween-80

Measured: T/C

COc1cccc2c1C(=O)C(C1CO1)=CC2=O (configuration not stated)
inactive: dose: 12.5 mg/kg/injection, schedule: Q01DX001 (ip), vehicle: Klucel (hydroxypropylcellulose) (HPC) 88 % of control | dose: 25.0 mg/kg/injection, schedule: Q01DX001 (ip), vehicle: Klucel (hydroxypropylcellulose) (HPC) 95 % of control

CNc1ccccc1C(=O)NN=C1c2ccccc2-c2ccccc21
inactive: [1] 100 % of control | [2] 106 % of control | [3] 99 % of control

CC1=C(C)CN(CCC(=O)O)C(C(N)=O)C1 (configuration not stated)
inactive: dose: 50.0 mg/kg/injection, schedule: Q01DX005 (ip), vehicle: saline 100 % of control | dose: 100.0 mg/kg/injection, schedule: Q01DX005 (ip), vehicle: saline 107 % of control | dose: 200.0 mg/kg/injection, schedule: Q01DX005 (ip), vehicle: saline 100 % of control

Cc1cc(C)n(C(=N)/C(C#N)=N/N(C)c2ccccc2)n1
inactive: dose: 25.0 mg/kg/injection, schedule: Q04DX002 (ip), vehicle: saline with Tween-80 100 % of control | [4] 93 % of control | [5] 90 % of control

COc1ccc(C2=C(Cl)C(=O)N(c3ccc(OC)cc3OC)C(=O)C2(Cl)Cl)cc1
inactive: dose: 100.0 mg/kg/injection, schedule: Q04DX002 (ip), vehicle: Klucel (hydroxypropylcellulose) (HPC) 98 % of control | dose: 200.0 mg/kg/injection, schedule: Q04DX002 (ip), vehicle: Klucel (hydroxypropylcellulose) (HPC) 101 % of control | dose: 400.0 mg/kg/injection, schedule: Q04DX002 (ip), vehicle: Klucel (hydroxypropylcellulose) (HPC) 117 % of control

O=C1C=Cc2ccccc2C1=C1SCCS1
inactive: [6] 103 % of control | [7] 93 % of control | [8] 90 % of control

CC1C2=C(C(=O)N1Cc1ccccc1)C(C1OC(COC(=O)c3ccccc3)C(OC(=O)c3ccccc3)C1OC(=O)c1ccccc1)C(=O)N(C)C2=O (configuration not stated)
inactive: dose: 39.0 mg/kg/injection, schedule: Q01DX009 (ip), vehicle: Klucel (hydroxypropylcellulose) (HPC) 97 % of control | dose: 78.0 mg/kg/injection, schedule: Q01DX009 (ip), vehicle: Klucel (hydroxypropylcellulose) (HPC) 99 % of control | dose: 156.0 mg/kg/injection, schedule: Q01DX009 (ip), vehicle: Klucel (hydroxypropylcellulose) (HPC) 95 % of control

CC(C)Cn1cnc2c(=S)nc(N)[nH]c21
inactive: dose: 8.0 mg/kg/injection, schedule: Q01DX009 (ip), vehicle: saline with Tween-80 95 % of control | dose: 16.0 mg/kg/injection, schedule: Q01DX009 (ip), vehicle: saline with Tween-80 100 % of control | dose: 32.0 mg/kg/injection, schedule: Q01DX009 (ip), vehicle: saline with Tween-80 100 % of control | dose: 64.0 mg/kg/injection, schedule: Q01DX009 (ip), vehicle: saline with Tween-80 90 % of control | dose: 100.0 mg/kg/injection, schedule: Q04DX003 (ip), vehicle: saline with Tween-80 109 % of control | dose: 264.0 mg/kg/injection, schedule: Q04DX003 (ip), vehicle: saline with Tween-80 100 % of control | dose: 400.0 mg/kg/injection, schedule: Q04DX003 (ip), vehicle: saline with Tween-80 112 % of control | dose: 600.0 mg/kg/injection, schedule: Q04DX003 (ip), vehicle: saline with Tween-80 116 % of control

Cc1ccc(O)c(O)c1
inactive: [9] 101 % of control

O=C1CN=C(c2ccccc2)c2cc(Cl)ccc2N1CC1CC1
inactive: [10] 100 % of control | dose: 200.0 mg/kg/injection, schedule: Q04DX003 (ip), vehicle: saline 94 % of control | dose: 400.0 mg/kg/injection, schedule: Q04DX003 (ip), vehicle: saline 101 % of control

CCOCCNc1ncnc2c1cnn2C
inactive: dose: 12.5 mg/kg/injection, schedule: Q04DX003 (ip), vehicle: saline 91 % of control | dose: 25.0 mg/kg/injection, schedule: Q04DX003 (ip), vehicle: saline 88 % of control | dose: 50.0 mg/kg/injection, schedule: Q04DX003 (ip), vehicle: saline 93 % of control | [10] 95 % of control

Oc1ccccc1C=NCc1ccccc1
inactive: [11] 107 % of control | [1] 119 % of control | [2] 114 % of control | [3] 114 % of control

Cc1ccc(C)c2c1C(=O)c1ccccc1C2(O)C#Cc1ccccc1 (configuration not stated)
inactive: [12] 101 % of control | [13] 94 % of control | [14] 94 % of control

CCOC(=O)C1SC(=S)N(c2ccccc2)C1N (configuration not stated)
inactive: [15] 98 % of control | [9] 104 % of control | [16] 105 % of control and 86 % of control

O=C(Nc1cc(-c2ccccc2)[nH]n1)c1ccccc1Cl
inactive: [17] 100 % of control | [18] 93 % of control | [19] 93 % of control

CS/C(=C\C=Nc1ccccc1)c1ccccc1
inactive: [5] 103 % of control | [20] 100 % of control | dose: 400.0 mg/kg/injection, schedule: Q04DX002 (ip), vehicle: saline with Tween-80 109 % of control

CC(=O)C(Cc1ccccc1)NC(=O)C(F)(F)F (configuration not stated)
inactive: [1] 93 % of control | [2] 90 % of control | [3] 98 % of control

O=C(NC(CO)C(=O)O)OCc1ccccc1 (configuration not stated)
inactive: [6] 94 % of control | [7] 99 % of control | [8] 89 % of control

Cc1cccc(C)c1NC(=O)Nc1cccc(C(F)(F)F)c1
inactive: [17] 100 % of control | [18] 100 % of control | [19] 90 % of control

O=C1C(Cl)=C(Nc2cccc3ccccc23)C(=O)c2ccccc21
inactive: dose: 6.25 mg/kg/injection, schedule: Q01DX005 (ip), vehicle: saline with Tween-80 104 % of control | dose: 12.5 mg/kg/injection, schedule: Q01DX005 (ip), vehicle: saline with Tween-80 101 % of control | dose: 25.0 mg/kg/injection, schedule: Q01DX005 (ip), vehicle: saline with Tween-80 109 % of control | [21] 108 % of control

NC(CCC(=O)O)C(=O)NC(Cc1ccc(O)cc1)C(=O)NC(CCC(=O)O)C(=O)O (stereo not drawn) (H-Glu-Tyr-Glu-OH; configuration not given here)
inactive: [12] 93 % of control | [13] 100 % of control | [14] 98 % of control

O=C1OC(Oc2ccccc2)c2cc3c(cc21)OCO3 (configuration not stated)
inactive: [17] 90 % of control | [18] 90 % of control | [19] 99 % of control

O=c1[nH]ncc2c1Sc1cn[nH]c(=O)c1S2
inactive: [21] 97 % of control | dose: 100.0 mg/kg/injection, schedule: Q01DX005 (ip), vehicle: saline with Tween-80 104 % of control | dose: 200.0 mg/kg/injection, schedule: Q01DX005 (ip), vehicle: saline with Tween-80 100 % of control

CCCCCCCCCCCCCCCC(=O)NCCN(CC)CC
inactive: dose: 12.5 mg/kg/injection, schedule: Q01DX009 (ip), vehicle: saline with Tween-80 105 % of control | [11] 100 % of control

CCOc1nc(N)nc(C)c1N=Nc1cccc([N+](=O)[O-])c1
inactive: dose: 60.0 mg/kg/injection, schedule: Q01DX005 (ip), vehicle: Klucel (hydroxypropylcellulose) (HPC) 100 % of control | dose: 120.0 mg/kg/injection, schedule: Q01DX005 (ip), vehicle: Klucel (hydroxypropylcellulose) (HPC) 94 % of control | dose: 240.0 mg/kg/injection, schedule: Q01DX005 (ip), vehicle: Klucel (hydroxypropylcellulose) (HPC) 103 % of control

O=[N+]([O-])c1ccc(N2CCCC2)c([N+](=O)[O-])c1
inactive: [11] 100 % of control | [1] 104 % of control | [2] 100 % of control | [3] 100 % of control

CCCCCCCCCCOC(=O)CC(C)=O.CCCCCCCCCCOC(=O)CC(C)=O.[Ni+2]
inactive: [15] 98 % of control | [9] 100 % of control | [16] 98 % of control and 91 % of control | dose: 100.0 mg/kg/injection, schedule: Q01DX009 (ip), vehicle: saline 86 % of control

CN(C)c1nc(NC=O)nc(N(C)C)n1
inactive: [4] 99 % of control | [5] 99 % of control | [20] 100 % of control

COC(=O)[C@@]12OC[C@]34[C@H]([C@@H](O)[C@@H]1O)[C@@]1(C)CC(=O)C(O)=C(C)[C@@H]1C[C@H]3OC(=O)[C@H](OC(=O)/C=C(\C)C1(C)CO1)[C@@H]24 (some centres not stated)
inactive: dose: 0.12 mg/kg/injection, schedule: Q01DX009 (ip), vehicle: saline + alcohol 119 % of control | dose: 0.5 mg/kg/injection, schedule: Q01DX009 (ip), vehicle: saline + alcohol 105 % of control
